Consider one substance from patent US6849602B1 (The Regents of the University of California, priority 1996, dated 2005).

For test [1], the system named is Newborn mouse cerebellar explants. Kind of test: Ex vivo myelination assay in newborn mouse cerebellar explants. The format is cell-based. The settings on record: 10 μg/ml. Here is the method: Newborn mouse cerebellar explants are prepared according to Satomi, Zool. Sci. 9:127-137 (1992). Neurite outgrowth and myelination are observed over 22 days in culture, during the period when the newborn mouse cerebellum normally undergoes neuronal differentiation and myelination begins. […] Neurite outgrowth and myelination in three control and three treated explants is assessed under a bright field microscope with a video camera. On the eighth day, cultures containing the peptides are thinner and more spread out than control cultures. […] Such projections are absent or less prominent in control cultures. […] Thus, the peptide of the invention induces myelination in differentiating cerebellum ex vivo.

For a further test, the system named is Schwann cells. The experiment in a line: Schwann cell death in culture (inhibition of demyelination). It is filed as cell-based. The source says:
Reduction of Schwann cell death is correlated with inhibition of demyelination. Schwann cells contain an extensive myelin sheath.

The next test concerns Selzer rat model. Kind of test: Hyperalgesia (hot plate withdrawal) in Selzer model rats. It is filed as in vivo. The following applies: intravenous at a dose of 200 mg/kg. Here is the method:
After induction of hyperalgesia by ligation of the sciatic nerve in one hind limb, the animals were injected with Prosaptide TX 14(A). Relief was measured using the hot plate withdrawal technique comparing ligated vs. unligated hind foot withdrawal. […] The relief lasted for up to 48 hours post injection.

The next test relates to STZ-diabetic rats. Kind of test: Nerve function, thermal response and body weight in STZ-diabetic rats. The following applies: for decline in SNCV between weeks 4 and 8 of diabetes: 200 μg/kg i.p. thrice weekly beginning after 4 weeks of diabetes. It is filed as in vivo, rat. Here is the method: Control and STZ-diabetic rats were treated using 1000 μg prosaptide TX 14(A) per kg body weights i.p., three times per week for 8 weeks.
In this EXAMPLE, control and STZ-diabetic rats were treated with prosaptide TX 14(A) at doses of 20 μg/kg, 200 μg/kg, and 1000 μg/kg body weight, i.p., three times per week for 8 weeks. The rats were weighed at the beginning, midpoint and the end of the experiment and motor nerve conduction (MNCV) and sensor nerve conduction velocity (SNCV) measurements were taken at the three time points.
These deficits were attenuated by thrice weekly treatment (1 mg/kg i.p. for 8 weeks) with prosaptide (58.1±1.2 and 54.9±1.3 respectively).
This EXAMPLE was designed to determine whether prosaptide could also reverse conduction deficits and hyperalgesia in the formalin test pain model once these disorders are established in diabetic rats. SNCV was measured before onset of diabetes and 4-8 weeks later in groups of control, untreated diabetic and prosaptide-treated (200 μg/kg i.p. thrice weekly for the last 4 weeks) diabetic rats. Flinch responses to injection of formalin (50 μl or 0.5% or 5.0% solution) were followed for 60 min in control, 8 week untreated diabetic, 8 week diabetic treated with prosaptide (200 μg/kg i.p.) 30 min pre-test and 8 week diabetic treated with prosaptide (200 μg/kg i.p.) thrice weekly for the last 4 weeks (the last treatment being 48-72 hr pre-test).

The mark [2] stands for this setting: 1 mg/kg i.p. thrice weekly for 8 weeks, diabetic rats.

Non-standard residues stand in square brackets, D forms with d. No end group written: not given here.

For the substance T[dA]LIDNNATEEILY [SEQ ID NO:2], in test [1] (22 days, compared to control explants), the “myelinated axons in the subcortical white matter” value is “significantly more myelinated axons”. Besides, the “neurite outgrowth (long projections) in explants” value in test [1] (day 15) was “contain many cells with long projections at the periphery of the explant”. The Schwann cell death result in the test with Schwann cells was “reduces Schwann cell death in a dose-dependent manner”. Also, in the test on Selzer rat model, the “duration of relief post injection” value is recorded as “up to 48 hours”, the relief of hyperalgesia result was “nearly complete relief of hyperalgesia” and the “time after injection to relief” value was not above 3 h. Besides, the thermal response latency result with STZ-diabetic rats (20 μg treatment group) is reported as “intermediate response”. In addition, the “decline in SNCV between weeks 4 and 8 of diabetes” value in the test with STZ-diabetic rats (listed as prosaptide) is recorded as “prevents any further decline in SNCV”. For the same substance, the “decline in SNCV between weeks 4 and 8 of diabetes” value in the test on STZ-diabetic rats (listed as prosaptide TX 14(A)) is on record as “halts progressive slowing of sensory conduction”. The thermal hypoalgesia result in the test with STZ-diabetic rats (1000 μg per kg i.p., three times per week for 8 weeks) is on record as “prevented hypoalgesia”. Moreover, the “hyperglycemia and loss of body weight” value in the test on STZ-diabetic rats (1000 μg per kg i.p., three times per week for 8 weeks (EXAMPLE XIV)) is “did not prevent hyperglycemia or loss of body weight”. Further, in the test with STZ-diabetic rats (setting [2]), the MNCV was 58.1±1.2 m/s, the SNCV turned out to be 54.9±1.3 m/s and the “thermal response latency (thermal hypoalgesia)” value turned out to be 8.8 ± 0.6 s. Moreover, the “weight loss compared to diabetic animals” value in the test with STZ-diabetic rats (20, 200 and 1000 μg/kg i.p., three times per week for 8 weeks) is “significant decreases in weight loss in a dose dependent manner”. For the same substance, in the test with STZ-diabetic rats (200 and 1000 μg), the thermal response latency result is listed as “restored to control non-diabetic levels”. The “motor nerve conduction velocities” value in the test on STZ-diabetic rats (200 and 1000 μg/kg, compared to untreated diabetic group and 20 μg/kg) is recorded as “enhanced motor nerve conduction velocities”. For the same substance, in the test on STZ-diabetic rats (all treated groups (20, 200, 1000 μg/kg)), the “loss of sensory nerve conduction velocity” value is given as “slower loss of sensory nerve conduction velocity”. Besides, in the test with STZ-diabetic rats (time course study, thrice weekly 20, 200 or 1000 μg i.p.), the “thermal hypoalgesia and decline in nerve conduction velocities during 8 weeks of diabetes” value is listed as “attenuated by prosaptide in a dose-dependent manner”.
